From patent US20230095926A1, “PARASITE CONTROL IN RUMINANTS” (Intervet Inc., priority 2019, published 2023)

Assays:
[1] = test system: sheep body lice (Bovicola ovis), benzoyl phenyl urea (IGR) resistant; assay: Efficacy long wool lice study, single subcutaneous injection, Merino ewes with 7 months wool growth; conditions: for Geometric efficacy (%) Day 7 / Geometric efficacy (%) Day 14 / Geometric efficacy (%) Day 21 / Geometric efficacy (%) Day 42 / Geometric efficacy (%) Day 84 / Geometric efficacy (%) Day 140: long wool sheep, Henderson-Tilton
[2] = test system: sheep body lice (Bovicola ovis), diazinon resistant; assay: Off-shears/short wool lice efficacy study, single subcutaneous dose, Merino sheep; format: in vivo; conditions: for Sheep Body Lice Efficacy Based on Geometric Means Day 7: Day 7 post-treatment; for Sheep Body Lice Efficacy Based on Geometric Means Day 14: Day 14 post-treatment; for Sheep Body Lice Efficacy Based on Geometric Means Day 21: Day 21 post-treatment; for Sheep Body Lice Efficacy Based on Geometric Means Day 41/42: Day 41/42 post-treatment; for Sheep Body Lice Efficacy Based on Geometric Means Day 84: Day 84 post-treatment; for Sheep Body Lice Efficacy Based on Geometric Means Day 140: Day 140 post-treatment
Experimental: In this study the efficacy of fluralaner when administered once subcutaneously at doses of 1 and 2 mg/kg body weight within 1 week prior to shearing, within 24 hours after shearing and 6 weeks after shearing against sheep body lice (Bovicola ovis) infestation on Merino sheep was evaluated.
Fluralaner was administered to sheep in Groups 2 and 3 seven days pre-shearing, Groups 4 and 5 within 24 hours after shearing and Groups 6 and 7 forty-two days post-shearing at either 1 mg/kg (Group 2, 4 and 6) or 2 mg/kg (Group 3, 5 and 7). Group 1 was left untreated as a negative control. All sheep were shorn on Day 0.
Lice counts were conducted on all sheep on Day −8 to −7 for allocation. Pre-treatment lice counts were conducted on Groups 2 and 3 on Day −8 to −7 (i.e. allocation counts), on Group 4 and 5 on Day −1 (pre-shearing) and on Group 6 and 7 on Day 41 (post-shearing). Post-treatment lice counts were conducted 7, 14, 21, 42, 84 and 140 days±1-day post-treatment. Group 1 was counted on each day that a lice count was conducted on a treated group for comparison purposes. Lice counts were performed as described in Example 1.

[3] = test system: sheep body lice (Bovicola ovis), diazinon resistant; assay: Long wool lice efficacy study, single subcutaneous dose, Merino sheep with 3 months wool growth; format: in vivo
Experimental: In this study the efficacy of fluralaner when administered once subcutaneously at doses of 1 and 2 mg/kg body weight against sheep body lice (Bovicola ovis) infestation on Merino sheep with 3 months wool growth was evaluated.
Fluralaner was administered to sheep in Groups 2 and 3 on Day 0 at 1 and 2 mg fluralaner/kg bodyweight respectively. Group 1 was left untreated as a negative control.
Pre-treatment lice counts were conducted on Day −1 and used to allocate sheep to treatment groups. Post-treatment lice counts were conducted 7, 14, 21, 42, 84 and 140 days±1-day post-treatment. Lice counts were performed as discussed in Example 1.

[4] = test system: biting/chewing lice (Bovicola bovis); assay: Biting lice efficacy study in cattle, natural infestation, single subcutaneous injection; format: in vivo; conditions: 1 mg/kg s.c.
Experimental: This study determined the efficacy (via reductions in total lice counts) of fluralaner in an injectable suspension formulation against natural infestations of cattle sucking (Haematopinus eurysternus, Linognathus vituli) and biting/chewing lice (Bovicola bovis) when applied at a single dose to young, lice infested cattle. Treatment efficacy was determined by whole body lice counts post treatment and comparison of treated and untreated (placebo) group mean lice counts. The naturally acquired louse infestations consisted of 2 species of sucking lice (Haematopinus eurysternus and Linognathus vituli) and the biting louse Bovicola bovis. Each animal was examined in a cattle crush prior to being selected from the parent mob to ensure that more than 30 sucking lice (combined total of both sucking lice species) were present. Fluralaner at a dose level of 1.0 mg/kg bw and Control Product were administered to cattle by subcutaneous injection. The numbers of live adults and live nymphs for each species of lice on each animal were counted at 7-day intervals starting with pre-treatment counts on Day −1 and post-treatment on Days 7, 14, 21, 28, 35, 42, 49 and 56.

[5] = test system: sheep body lice (Bovicola ovis); assay: Persistency determination, lice challenge of treated lice free Merino sheep with 5 months wool growth; format: in vivo; conditions: 3.0 mg/kg s.c., Day 21-28 challenge, counts 7, 14, 21, 42 and 84 days post-challenge
Experimental: In this study the persistent efficacy of fluralaner when administered once subcutaneously at doses of 1.0, 2.0 and 3.0 mg/kg body weight against sheep body lice (Bovicola ovis) infestation on Merino sheep with 5 months wool growth was evaluated.
Fluralaner was administered to sheep in three groups each at 1.0, 2.0 and 3.0 mg fluralaner/kg bodyweight. The dose was administered subcutaneously. Three groups were left untreated as negative control groups.
From Day 21-28, 49-56 and Day 77-84 post-treatment one group of untreated negative control sheep and one group of sheep treated at 1.0, 2.0 and 3.0 mg/kg were challenged with lice by close confinement with lice infested sheep and manual transfer of lice. Following the challenges lice counts were conducted 7, 14, 21, 42 and 84 days±1-day post-challenge (not all counts conducted for all challenges).

[6] = 1 mg/kg s.c., treated 7 days pre-shearing
[7] = 1 mg/kg s.c., treated 42 days post-shearing
[8] = 1 mg/kg s.c., treated within 24 hours after shearing
[9] = 2 mg/kg s.c., treated 7 days pre-shearing
[10] = 2 mg/kg s.c., treated 42 days post-shearing
[11] = 2 mg/kg s.c., treated within 24 hours after shearing

Structure (SMILES): Cc1cc(C2=NOC(c3cc(Cl)cc(Cl)c3)(C(F)(F)F)C2)ccc1C(=O)NCC(=O)NCC(F)(F)F (stereo not drawn) [Fluralaner, 4-[5-(3,5-dichlorophenyl)-5-trifluoromethyl-4,5-dihydroisoxazol-3-yl]-2-methyl-N-[(2,2,2-trifluoro-ethylcarbamoyl)-methyl]-benzamide]
- Geometric efficacy (%) Day 7 ([1]; 1.0 mg/kg s.c. once): 99.4%
- Geometric efficacy (%) Day 14 ([1]; 1.0 mg/kg s.c. once): 99.9%
- Geometric efficacy (%) Day 21 ([1]; 1.0 mg/kg s.c. once): 100.0%
- Geometric efficacy (%) Day 42 ([1]; 1.0 mg/kg s.c. once): 100.0%
- Geometric efficacy (%) Day 84 ([1]; 1.0 mg/kg s.c. once): 100.0%
- Geometric efficacy (%) Day 140 ([1]; 1.0 mg/kg s.c. once): 100.0%
- Geometric efficacy (%) Day 7 ([1]; 2.0 mg/kg s.c. once): 99.6%
- Geometric efficacy (%) Day 14 ([1]; 2.0 mg/kg s.c. once): 100.0%
- Geometric efficacy (%) Day 21 ([1]; 2.0 mg/kg s.c. once): 100.0%
- Geometric efficacy (%) Day 42 ([1]; 2.0 mg/kg s.c. once): 100.0%
- Geometric efficacy (%) Day 84 ([1]; 2.0 mg/kg s.c. once): 100.0%
- Geometric efficacy (%) Day 140 ([1]; 2.0 mg/kg s.c. once): 100.0%
- Geometric efficacy (%) Day 7 ([1]; 3.0 mg/kg s.c. once): 99.6%
- Geometric efficacy (%) Day 14 ([1]; 3.0 mg/kg s.c. once): 100.0%
- Geometric efficacy (%) Day 21 ([1]; 3.0 mg/kg s.c. once): 100.0%
- Geometric efficacy (%) Day 42 ([1]; 3.0 mg/kg s.c. once): 100.0%
- Geometric efficacy (%) Day 84 ([1]; 3.0 mg/kg s.c. once): 100.0%
- Geometric efficacy (%) Day 140 ([1]; 3.0 mg/kg s.c. once): 100.0%
- treatment related adverse events or health problems ([1]; sheep, 1, 2 and 3 mg/kg s.c., throughout the duration of the trial): No treatment related adverse events or health problems occurred
- Sheep Body Lice Efficacy Based on Geometric Means Day 7 [2, 6]: 93.9%
- Sheep Body Lice Efficacy Based on Geometric Means Day 14 [2, 6]: 97.7%
- Sheep Body Lice Efficacy Based on Geometric Means Day 21 [2, 6]: 99.7%
- Sheep Body Lice Efficacy Based on Geometric Means Day 41/42 [2, 6]: 100.0%
- Sheep Body Lice Efficacy Based on Geometric Means Day 84 [2, 6]: 100.0%
- Sheep Body Lice Efficacy Based on Geometric Means Day 140 [2, 6]: 100.0%
- Sheep Body Lice Efficacy Based on Geometric Means Day 7 [2, 7]: 94.4%
- Sheep Body Lice Efficacy Based on Geometric Means Day 14 [2, 7]: 99.5%
- Sheep Body Lice Efficacy Based on Geometric Means Day 21 [2, 7]: 100.0%
- Sheep Body Lice Efficacy Based on Geometric Means Day 41/42 [2, 7]: 100.0%
- Sheep Body Lice Efficacy Based on Geometric Means Day 84 [2, 7]: 100.0%
- Sheep Body Lice Efficacy Based on Geometric Means Day 140 [2, 7]: 100.0%
- Sheep Body Lice Efficacy Based on Geometric Means Day 7 [2, 8]: 39.5%
- Sheep Body Lice Efficacy Based on Geometric Means Day 14 [2, 8]: 83.1%
- Sheep Body Lice Efficacy Based on Geometric Means Day 21 [2, 8]: 98.8%
- Sheep Body Lice Efficacy Based on Geometric Means Day 41/42 [2, 8]: 99.9%
- Sheep Body Lice Efficacy Based on Geometric Means Day 84 [2, 8]: 100.0%
- Sheep Body Lice Efficacy Based on Geometric Means Day 140 [2, 8]: 100.0%
- time until efficacy reached the required level (no lice detected) ([2]; 2.0 mg/kg dose rate, all wool lengths except off-shears): ≤ 14 days post-treatment
- Sheep Body Lice Efficacy Based on Geometric Means Day 7 [2, 9]: 96.7%
- Sheep Body Lice Efficacy Based on Geometric Means Day 14 [2, 9]: 100.0%
- Sheep Body Lice Efficacy Based on Geometric Means Day 21 [2, 9]: 100.0%
- Sheep Body Lice Efficacy Based on Geometric Means Day 41/42 [2, 9]: 100.0%
- Sheep Body Lice Efficacy Based on Geometric Means Day 84 [2, 9]: 100.0%
- Sheep Body Lice Efficacy Based on Geometric Means Day 140 [2, 9]: 100.0%
- Sheep Body Lice Efficacy Based on Geometric Means Day 7 [2, 10]: 96.8%
- Sheep Body Lice Efficacy Based on Geometric Means Day 14 [2, 10]: 100.0%
- Sheep Body Lice Efficacy Based on Geometric Means Day 21 [2, 10]: 100.0%
- Sheep Body Lice Efficacy Based on Geometric Means Day 41/42 [2, 10]: 100.0%
- Sheep Body Lice Efficacy Based on Geometric Means Day 84 [2, 10]: 100.0%
- Sheep Body Lice Efficacy Based on Geometric Means Day 140 [2, 10]: 100.0%
- Sheep Body Lice Efficacy Based on Geometric Means Day 7 [2, 11]: 86.6%
- Sheep Body Lice Efficacy Based on Geometric Means Day 14 [2, 11]: 97.1%
- Sheep Body Lice Efficacy Based on Geometric Means Day 21 [2, 11]: 99.2%
- Sheep Body Lice Efficacy Based on Geometric Means Day 41/42 [2, 11]: 99.4%
- Sheep Body Lice Efficacy Based on Geometric Means Day 84 [2, 11]: 99.9%
- Sheep Body Lice Efficacy Based on Geometric Means Day 140 [2, 11]: 100.0%
- viable lice eggs ([2]; 1 and 2 mg/kg, all three treatment times, out to 140 days post-treatment): no viable lice eggs were detected
- time until activity reached the required level ([3]; 1.0 mg/kg dose rate): ≤ 42 days post-treatment
- Sheep Body Lice Efficacy Based on Geometric Means Day 7 ([3]; 1 mg/kg s.c.): 81.8%
- Sheep Body Lice Efficacy Based on Geometric Means Day 14 ([3]; 1 mg/kg s.c.): 97.2%
- Sheep Body Lice Efficacy Based on Geometric Means Day 21 ([3]; 1 mg/kg s.c.): 99.6%
- Sheep Body Lice Efficacy Based on Geometric Means Day 42 ([3]; 1 mg/kg s.c.): 100.0%
- Sheep Body Lice Efficacy Based on Geometric Means Day 84 ([3]; 1 mg/kg s.c.): 100.0%
- Sheep Body Lice Efficacy Based on Geometric Means Day 140 ([3]; 1 mg/kg s.c.): 100.0%
- time until efficacy reached the required level ([3]; 2.0 mg/kg dose rate): ≤ 14 days post-treatment
- Sheep Body Lice Efficacy Based on Geometric Means Day 7 ([3]; 2 mg/kg s.c.): 95.2%
- Sheep Body Lice Efficacy Based on Geometric Means Day 14 ([3]; 2 mg/kg s.c.): 100.0%
- Sheep Body Lice Efficacy Based on Geometric Means Day 21 ([3]; 2 mg/kg s.c.): 100.0%
- Sheep Body Lice Efficacy Based on Geometric Means Day 42 ([3]; 2 mg/kg s.c.): 100.0%
- Sheep Body Lice Efficacy Based on Geometric Means Day 84 ([3]; 2 mg/kg s.c.): 100.0%
- Sheep Body Lice Efficacy Based on Geometric Means Day 140 ([3]; 2 mg/kg s.c.): 100.0%
- efficacy against the biting lice B. bovis ([4]; Day 7): 91.74%
- efficacy against the biting lice B. bovis ([4]; by Day 14): 100%
- lice found on treated cattle ([4]; from Day 21 until Day 56): no lice of any species found
- lice or viable lice eggs found after challenge [5]: No lice or viable lice eggs were found
